In one test the target is T1, AurA (Homo sapiens, UniProt O14965).
T1 construct: purchased Carna Biosciences
T1 sequence (O14965 1-403): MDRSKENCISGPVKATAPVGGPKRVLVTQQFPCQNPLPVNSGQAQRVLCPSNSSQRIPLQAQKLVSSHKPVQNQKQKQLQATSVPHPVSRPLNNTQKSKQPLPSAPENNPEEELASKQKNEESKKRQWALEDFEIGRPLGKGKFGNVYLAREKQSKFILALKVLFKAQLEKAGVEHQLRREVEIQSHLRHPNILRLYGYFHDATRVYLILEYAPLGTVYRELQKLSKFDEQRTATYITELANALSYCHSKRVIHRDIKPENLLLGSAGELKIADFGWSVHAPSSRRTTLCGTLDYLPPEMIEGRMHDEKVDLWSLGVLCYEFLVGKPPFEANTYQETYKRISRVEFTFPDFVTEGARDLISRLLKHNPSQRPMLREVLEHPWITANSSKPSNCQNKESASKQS
The test is described as follows: LabChip (Caliper) kinase assay, AurA. The format is biochemical. The conditions noted are these: for inhibition at 0.01 µM: compound at 10 nM; for inhibition at 0.01 µM / inhibition at 0.1 µM: read-out: remaining kinase activity (in %) / percentage of inhibition; for inhibition at 0.1 µM: compound at 100 nM; for IC50: ATP at Km, read-out: CI50 (the source's name). The method, then: (§1) The analysis of kinase activity described here was performed using LabChip (Caliper Life Sciences), specifically the Caliper LC3000 and the EZ Reader II instruments.
(§2) The kinase assay used measures the conversion of a fluorescent peptide (substrate) to a phosphorylated product. The reaction mixture, in a microplate well, is introduced by a capillary in a chip where the non-phosphorylated substrate and the phosphorylated product are separated by […]. The intensity of the fluorescent signal over time is related to the reaction progress. The phosphorylated product migrates quicker than the non-phosphorylated substrate and the signals of the two forms of the peptide appear as differentiated peaks. The Caliper determines the peak height and calculates the ratio of product to the peak sum (P/(P+S)). This value is used to compare wells with compounds and wells with controls and thus determine the % of inhibition for the given product.
(§3) The followings kinases were used for the enzymatic inhibition studies, between brackets the value of the Michaelis-Menten constant, Km, of the ATP (Adenosine triphosphate) for each kinase, in μM: obtained from Carna Biosciences: MAPKAPK2 (4.6), AurA (3.6), AurB (5), PKCζ (3.8), RSK1 (23.3), PRAK (5), Erk1 (33.4), PKD2 (32.1), CK1d (16.3), CHK1 (33), ABL (61.7), FYN (36), LYNa (17), CHK2 (57.8), MET (79.5), LCK (28.5), SRC (38), GSK3β (7.3), Erk2 (62.1), PKACα (1.7), AKT2 (186.1), INSR (871.8), p38a (396.5), AKT1(48), MSK1 (21.2), PKCβ2 (84.8), ROCK2 (3.3), PIM2 (4.9), AMPK (38.6), KDR (164.8), IRAK4 (196.5), SGK1 (121.8), SYK (33.5); obtained from Invitrogen: CDK2 (57.6), BTK (123), HGK (80); obtained from Upstate: MST2 (36.6), PKGα (16), PAK2 (1.9), IGF1R (320), FGFR1 (171), MARK1 (33), CAMK2δ (22.4), c-TAK1 (66), DYRK1a (18.1), CaMK4 (3.9), FLT3 (350), c-Raf (6.2), P70S6K (95).
(§4) The compounds were dissolved in 100% DMSO and were diluted at 25 times the final concentration desired for the assay. In the case of the determination of Cl50, serial dilutions were made to reach eight concentrations and give rise to the inhibition curve. 1 μL of each concentration is transferred, in duplicate to a 384-well microplate. 12 μL of enzymatic buffer is added to each well containing purified kinase (several suppliers as indicated above), 100 mM HEPES, pH 7.5, 1 mM DTT (Calbiochem), 0.002% Brij-35 (Sigma) and also in presence of 10 mM MgCl2 as cofactor, except for INSR and IRAK4 wherein 10 mM MnCl2 is used instead of MgCl2. For the kinases CAMK26 and CAMK4, 1 mM CaCl2 and 6.7 μg/mL of calmodulin are also added. For KDR kinase, 0.05% of the CHAPSO detergent is added. For the c-Raf kinase, 10 mM MnCl2 is added. For PKCβ2 0.02 μg/mL of PS/PMA is added. For PKGα se 10 μM of cGMP (cyclic guanosine monophosphate) is added. The compound and the enzyme are left for 15 minutes preincubation and, then, the following are added to each well: 12 μL of peptide buffer/ATP containing 100 mM HEPES, pH 7.5, 1.5 μM peptide marker with fluorescein (specific for the corresponding kinase), ATP (at concentration KM), and 0.002% Brij-35 to start the reaction. Generally, the reactions are incubated for 1-1.5 h at ambient temperature to obtain an adequate conversion (15-40%) of the peptide to the phosphorylated product. The reactions were ended by the addition of 45 μL of buffer containing 0 mM EDTA. The microplates were read by the LabChip 3000 using a 12-channel LabChip. The P/(P+S) values were obtained as described above and the CI50 curves were generated using XIfit.
(§5) Table 9a has the 0150 data obtained in pairs of compound-kinase selected from the compounds of formula (VII), (VIII), (IX), (XVI), (XVII) and (XVIII) after taking inhibition measurements at 100 nM and 10 nM. Those couples that provide >70% of inhibition at 10 nM were consider for measuring its IC50. […]

The next test addresses T2, Chk1 (Homo sapiens, UniProt O14757).
T2 construct: purchased Carna Biosciences
T2 sequence (O14757 1-476): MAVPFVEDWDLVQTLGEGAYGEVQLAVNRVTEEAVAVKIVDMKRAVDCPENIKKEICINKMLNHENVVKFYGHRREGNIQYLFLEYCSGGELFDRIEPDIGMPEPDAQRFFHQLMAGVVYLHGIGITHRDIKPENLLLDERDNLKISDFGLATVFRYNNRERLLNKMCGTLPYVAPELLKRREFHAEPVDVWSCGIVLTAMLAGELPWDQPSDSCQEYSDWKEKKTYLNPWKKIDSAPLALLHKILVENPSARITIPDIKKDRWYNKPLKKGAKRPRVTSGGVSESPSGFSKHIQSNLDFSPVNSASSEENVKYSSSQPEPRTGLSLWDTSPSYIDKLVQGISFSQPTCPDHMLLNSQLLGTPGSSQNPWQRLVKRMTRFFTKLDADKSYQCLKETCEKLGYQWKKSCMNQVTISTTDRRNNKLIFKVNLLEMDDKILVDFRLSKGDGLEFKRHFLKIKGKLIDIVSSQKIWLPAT
The test is described as follows: LabChip (Caliper) kinase assay, Chk1. It counts as biochemical. The following applies: for inhibition at 0.01 µM: compound at 10 nM; for inhibition at 0.01 µM / inhibition at 0.1 µM: read-out: remaining kinase activity (in %) / percentage of inhibition; for inhibition at 0.1 µM: compound at 100 nM; for IC50: ATP at Km, read-out: CI50 (the source's name). The method, then:
as §1, §2, §3, §4, §5

Structures are written as SMILES. Some results are limits rather than exact numbers.

In the case of `C[C@H]1O[C@@H](n2c3ccccc3c3c4c(c5c6ccccc6[nH]c5c32)CNC4=O)C[C@@H](O)[C@@H]1O` [formula (XV), N^13-1′-β-D-olivosyl-k252c], at AurA, the inhibition at 0.01 µM was determined as 3% and the inhibition at 0.1 µM stood at 20%. In addition, on Chk1, the inhibition at 0.01 µM was 4% and the inhibition at 0.1 µM was found to be 20%.

In the case of `C[C@]12O[C@H](C[C@H](O)[C@H]1O)n1c3ccccc3c3c4c(c5c6ccccc6n2c5c31)CNC4=O` [formula (XVII), N^12-5′(S)-N^13-1′-(R)-L-olivosyl-k252c], on AurA, the IC50 is 5 nM.

Turning to `C[C@@H]1O[C@@H](n2c3ccccc3c3c4c(c5c6ccccc6[nH]c5c32)CNC4=O)[C@H](O)[C@H](O)[C@H]1O` [formula (XII), N^13-1′-β-L-rhamnosyl-k252c], the inhibition at 0.01 µM at AurA and on Chk1 was 2% each time. The inhibition at 0.1 µM is 3% on AurA and 8% at Chk1.

In the case of `C[C@H]1O[C@@H](n2c3ccccc3c3c4c(c5c6ccccc6[nH]c5c32)C(=O)NC4=O)C[C@@H](O)[C@@H]1O` [formula (VI), N^13-1′-β-D-olivosylarcyriaflavin], on AurA, the inhibition at 0.01 µM is 3% and the inhibition at 0.1 µM was determined as 13%. On Chk1, the inhibition at 0.01 µM is 2% and the inhibition at 0.1 µM came out at 50%.

Regarding `C[C@]12O[C@H]([C@H](O)[C@H](O)[C@H]1O)n1c3ccccc3c3c4c(c5c6ccccc6n2c5c31)C(=O)NC4=O` [formula (VII), N^12-5′(S)-N^13-1′-(R)-L-rhamnosylarcyriaflavin], the IC50 was above 10 nM on AurA and 1 nM on Chk1.

Turning to `C[C@]12O[C@H](C[C@@H](O)[C@H]1O)n1c3ccccc3c3c4c(c5c6ccccc6n2c5c31)C(=O)NC4=O` [formula (IX), N^12-5′(S)-N^13-1′-(R)-L-digitoxosylarcyriaflavin], on AurA, the IC50 came out at 6.7 nM.

Take `C[C@]12O[C@H](C[C@@H](O)[C@H]1O)n1c3ccccc3c3c4c(c5c6ccccc6n2c5c31)CNC4=O` [formula (XVIII), N^12-5′(S)-N^13-1′-(R)-L-digitoxosyl-k252c]: the IC50 at AurA and at Chk1 was above 10 nM in each case.

For `C[C@]12O[C@H]([C@H](O)[C@H](O)[C@H]1O)n1c3ccccc3c3c4c(c5c6ccccc6n2c5c31)CNC4=O` [formula (XVI), N^12-5′(S)-N^13-1′-(R)-L-rhamnosyl-k252c], the IC50 on Chk1 was determined as 2.4 nM.

For `C[C@@H]1O[C@@H](n2c3ccccc3c3c4c(c5c6ccccc6[nH]c5c32)C(=O)NC4=O)C[C@H](O)[C@H]1O` [formula (IV), N^13-1′-β-L-olivosylarcyriaflavin], at AurA, the inhibition at 0.01 µM amounted to 4% and the inhibition at 0.1 µM came to 19%. Also, on Chk1, the inhibition at 0.01 µM came to 5% and the inhibition at 0.1 µM was found to be 35%.

On to `C[C@@H]1O[C@@H](n2c3ccccc3c3c4c(c5c6ccccc6[nH]c5c32)CNC4=O)C[C@@H](O)[C@H]1O` [formula (XIV), N^13-1′-β-L-digitoxosyl-k252c], for which, at AurA, the inhibition at 0.01 µM came to 1% and the inhibition at 0.1 µM was 5%. Moreover, at Chk1, the inhibition at 0.01 µM came to 6% and the inhibition at 0.1 µM worked out at 46%.

Consider `C[C@@H]1O[C@@H](n2c3ccccc3c3c4c(c5c6ccccc6[nH]c5c32)C(=O)NC4=O)C[C@@H](O)[C@H]1O` [formula (V), N^13-1′-β-L-digitoxosylarcyriaflavin], for which, on AurA, the inhibition at 0.01 µM is 4% and the inhibition at 0.1 µM came out at 22%. Moreover, on Chk1, the inhibition at 0.01 µM was 45% and the inhibition at 0.1 µM was determined as 81%.

For `C[C@]12O[C@H](C[C@H](O)[C@H]1O)n1c3ccccc3c3c4c(c5c6ccccc6n2c5c31)C(=O)NC4=O` [formula (VIII), N^12-5′(S)-N^13-1′-(R)-L-olivosylarcyriaflavin], the IC50 on AurA was above 10 nM; at Chk1 it was 4.9 nM.

`C[C@@H]1O[C@@H](n2c3ccccc3c3c4c(c5c6ccccc6[nH]c5c32)CNC4=O)C[C@H](O)[C@H]1O` [formula (XIII), N^13-1′-β-L-olivosyl-k252c]: the inhibition at 0.01 µM at AurA was found to be 2%; on Chk1, 1%. Further, the inhibition at 0.1 µM came out at 24% on AurA and 27% on Chk1.

On to `C[C@@H]1O[C@@H](n2c3ccccc3c3c4c(c5c6ccccc6[nH]c5c32)C(=O)NC4=O)[C@H](O)[C@H](O)[C@H]1O` [formula (III), N^13-1′-β-L-rhamnosylarcyriaflavin], for which the inhibition at 0.01 µM on AurA was 0%; on Chk1 it was -3%. In addition, the inhibition at 0.1 µM at AurA came out at 5%; on Chk1, 15%.
